{"source": "paper PMC4789767", "about": "“Application of linker technique to trap transiently interacting protein complexes for structural studies” (Journal of Biological Methods, 2016)", "key": {"CaM": {"system": "CaM", "test": "ITC: binding of MBR (IQ motif) peptides to CaM", "settings": "VP-ITC, 25°C, 10 µM CaM in cell, 150 µM IQ peptide in syringe, Buffer A: 20 mM imidazole pH 8.0, 100 mM NaCl, 2 mM EGTA, in words, Fig. 3B vs 3A", "method": "Different lengths of Nm and Ng IQ motif peptides were commercially synthesized and obtained from GL BiochemLtd (Shanghai, China). Stock solutions of 1 mM of Nm/Ng IQ peptides were prepared by dissolving the appropriate amount of peptide in 20 mM imidazole pH 8.0, 100 mM NaCl and 2 mM EGTA (Buffer A). After mixing, the peptide stock solutions were stored at 4°C to ensure complete peptide solubility. The choice of buffer is based on obtaining maximum solubility of the peptides. NOTE: Synthetically derived peptides should be verified for solubility when dissolved in a buffer of interest. Sometimes preparing high concentrations of peptide stock solution may result in precipitation. Lower concentrations of stock solutions can be prepared to avoid this problem.\n• 1. ITC assay: Identification of MBR (minimum binding region) from Nm and Ng. • 1.1. Wildtype (WT) CaM, Nm and Ng are purified, as described previously. • 1.2. Prepare 10 µM of full length Nm/Ng and 150 µM of CaM in Buffer A (Recipes). The Schematic representation of the ITC experimental setup is depicted in Figure 2A. • 1.3. Degas all solutions for 10–20 min using a vacuum pump and centrifuge in order to avoid bubble formation in the sample cell during the experiment. • 1.4. […]"}, "C-lobe of CaM": {"system": "C-lobe of CaM", "settings": "previous findings; ref [34]-[36]; cited from earlier work", "excerpt": "The Gly-linker strategy has been previously used to stabilize various protein complexes for structural studies. We have adopted this procedure to determine the crystal structure of CaM in complex with two of its intrinsically unstructured binding partners, Nm and Ng, and further validated the findings in vitro and in vivo [19]. We identified the MBR of Nm and Ng that interacted with CaM using ITC experiments using various peptide lengths of Nm/Ng. […] We employed known s ..."}}, "data": [{"substance": "Minimum Binding Region (MBR) peptide of Nm: Optimized minimum binding region peptide (IQ motif) of Neuromodulin; commercially synthesized", "values": [{"measurement": "binding with CaM compared with full length Nm", "setting": "CaM", "result": "mimics full length Nm in terms of binding with CaM"}]}, {"substance": "Ng: Full-length Neurogranin (accession no NP_071312), intrinsically disordered neuron-specific substrate protein", "values": [{"measurement": "interaction site on CaM", "setting": "C-lobe of CaM", "result": "interacted with the C-lobe of CaM"}]}, {"substance": "Nm: Full-length Neuromodulin (accession no NP_032109), intrinsically disordered neuron-specific substrate protein", "values": [{"measurement": "interaction site on CaM", "setting": "C-lobe of CaM", "result": "interacted with the C-lobe of CaM"}]}]}
